{"source": "patent US11491117B2", "about": "“Compounds for the prevention and treatment of glucose intolerance related conditions and obesity” (SORBONNE UNIVERSITÉ, priority 2017, dated 2022)", "key": {"[1]": {"tested_on": "C57BL/6J mice fed control chow diet (CHD) or high fat diet (HFD)", "assay": "Chronic subcutaneous infusion in mice fed control chow or high fat diet: body growth, glucose homeostasis (IPGTT), insulin secretion, organ weight, liver triglycerides", "type": "in vivo, mouse", "description": "Six weeks-old C57BL/6J male mice (Janvier Labs, Courtaboeuf, France) were received and acclimated in specific pathogen free (SPF) maintenance condition. Mice had free access to a standard chow diet (R04-40, Safe, Augy, France) and were kept on 12 h light/dark cycle. After one week, a group of 12 mice was fed control carbohydrate diet (CHD) (D 12450Ki, Research diets, NJ) and a group of 12 mice was fed high fat (60% fat and sucrose) diet (HFD) (D12492i, Research diets, NJ).\nAfter three weeks of metabolite treatment (i.e. four weeks of HFD feeding) an intra-peritoneal glucose tolerance test (IPGTT) (2 g/kg) was performed in conscious mice following an overnight fast. Blood was collected from the tail vein before glucose injection and 15, 30, 60 and 120 minutes afterwards. Additional blood samples were collected during the IPGTT in GK rats 15, 90, 180 and 240 minutes after glucose injection. Blood glucose levels were determined using an Accu-Check® Performa (Roche Diagnostics, Meylan, France). Additional blood samples were collected at base line and 30 minutes after glucose injection in Microvette® CB 300 Lithium Heparin (Sarstedt, Marnay, France). Plasma was separated by centrifugation and stored at −80° C. until insulin radioimmunoassay. Evaluation of overall glucose tolerance was obtained from cumulative glycemia (GCum) and the ΔG, which were determined by the total increment of plasma glucose values during the IPGTT (GCum) and the cumulative glycemia during the test above baseline (ΔG). After six weeks of metabolite treatment, mice were killed by decapitation and organ were dissected and weighed. Half of liver, fat and pancreas samples were snap frozen in liquid nitrogen and stored at −80° C. for molecular studies, and the second half processed for histopathology. All procedures were authorized following review by the institutional ethic committee and carried out under national license condition (Ref 00486.02).\n(§1) Blood glucose was measured using an Accu-Check® Performa (Roche Diagnostics, Meylan, France) and plasma insulin was determined using Insulin ELISA kits (Mercodia, Uppsala, Sweden). For determination of liver triglycerides, liver samples (100 mg) were homogenized and incubated in NonidetP-40 (5%) and supernatants containing triglycerides were collected. Triglycerides concentration was quantified in the supernatant fraction using a colorimetric assay (ab65336, Abcam, Paris, France) by measuring OD at 570 nm. The ratio NAD/NADH was determined using a quantification kit (MAK037; SigmaAldrich, St Quentin, France) on extracts prepared from 20 mg pancreas tissue. Samples were homogenized in the extraction buffer and clarified by centrifugation. Supernatant was deproteinized by filtration through a 10-kDa cutoff spin filter (Millipore SAS, Molsheim, France). The assay was then performed according to the manufacturer's instructions.\nAs expected, mice fed HFD rapidly gained more weight than mice fed control diet and developed fasting hyperglycemia and marked glucose intolerance (FIG. 1A-1F)."}, "pancreas gene expression": {"tested_on": "pancreas gene expression", "assay": "Quantitative RT-PCR and NAD/NADH in total pancreas of chronically treated mice", "type": "in vivo, mouse", "description": "as §1, with “SigmaAldrich, St Quentin, France) on extracts prepared from 20 mg pancreas tissue.” left out, “instructions. RNA was extracted from pancreas, adipose tissue and liver using the RNeasy RNA Mini Kit (Qiagen, Courtaboeuf, France). Reverse transcription was performed from a 20 μL reaction mixture with 500 ng RNA using M-MLV reverse transcriptase kit (ThermoFisher, Villebon, France). Quantitative RT-PCR was performed using sequence specific primers and the MESA green kit for SYBR green assays (Eurogentec, Angers, France). We used 18S and/or cyclophilin house keeping genes to normalize relative quantification of mRNA levels using the Livak and […] methods ([…], 2001).” for “instructions.”"}, "[2]": {"settings": "mice fed control diet, IPGTT, vs saline"}, "[3]": {"settings": "CHD-fed mice, not statistically significant"}}}
{"compound": "Cc1ccc(O)cc1", "note": "[4-cresol]", "values": [{"measurement": "effect on body weight", "setting": "[1]; HFD-fed mice", "result": "strongly significant"}, {"measurement": "effect on glycemic control", "setting": "[1]; HFD-fed mice", "result": "strongly significant"}, {"measurement": "effect on insulin secretion", "setting": "[1]; HFD-fed mice", "result": "strongly significant"}, {"measurement": "liver weight", "setting": "[1]; HFD-fed mice", "result": "reduced"}, {"measurement": "ΔG parameter", "setting": "[1]; HFD-fed mice, IPGTT, vs HFD saline", "result": "normalized to the level of mice fed chow diet and treated with saline"}, {"measurement": "fasting glycemia", "setting": "[1]; HFD-fed mice, vs HFD saline", "result": "strong reduction"}, {"measurement": "fasting hyperinsulinemia", "setting": "[1]; HFD-fed mice, vs HFD saline", "result": "strong reduction"}, {"measurement": "increase in pancreas weight", "setting": "[1]; both diet groups, 6 weeks, vs saline", "result": 48.9, "unit": "%"}, {"measurement": "liver triglycerides content", "setting": "[1]; both diet groups, vs saline", "result": "systematic and dramatic reduction"}, {"measurement": "heart weight", "setting": "[1]; mice fed CHD or HFD, 6 weeks", "result": "not affected"}, {"measurement": "kidney weight", "setting": "[1]; mice fed CHD or HFD, 6 weeks", "result": "not affected"}, {"measurement": "acute glycemic response to the glucose challenge", "setting": "[1]; [2]", "result": "significant reduction"}, {"measurement": "glucose tolerance", "setting": "[1]; [2]", "result": "improved"}, {"measurement": "BMI", "setting": "[1]; mice fed control diet, end of experiment, vs saline", "result": "significant decrease in BMI"}, {"measurement": "body weight", "setting": "[1]; mice fed control diet, s.c. infusion 0.5 mg/kg/day, 42 days, vs saline", "result": "progressive reduction in body weight"}, {"measurement": "glucose-stimulated insulin secretion", "setting": "[1]; mice fed control diet, vs controls", "result": "significant increase"}, {"measurement": "cumulative glycemia during the IPGTT", "setting": "[1]; mice fed control diet, vs saline", "result": "significant reduction"}, {"measurement": "expression of Ins1 and Hnf1α in pancreas", "setting": "pancreas gene expression; [3]", "result": "Enhanced expression"}, {"measurement": "expression of Ucp2 in pancreas", "setting": "pancreas gene expression; [3]", "result": "reduced expression"}, {"measurement": "transcription of genes encoding amylase, Vegf, Bdnf, IL10 and Sirt1 in pancreas", "setting": "pancreas gene expression; CHD-fed mice, vs saline-treated CHD-fed mice", "result": "increased transcription"}, {"measurement": "IL10 transcript level in pancreas", "setting": "pancreas gene expression; HFD-fed mice", "result": "remained elevated"}, {"measurement": "expression of Bdnf, Hnf1α, Pdx1 and Vegf in pancreas", "setting": "pancreas gene expression; HFD-fed mice, differences not statistically significant", "result": "strongly overexpressed"}, {"measurement": "pancreatic expression of ERα", "setting": "pancreas gene expression; fat fed mice in vivo", "result": "does not regulate significantly"}, {"measurement": "expression of Ucp2, IL6 and Tnf in pancreas", "setting": "pancreas gene expression; mice fed HFD, vs HFD saline", "result": "significantly reduced expression"}, {"measurement": "expression of genes encoding Sirt1 and Ins1 in pancreas", "setting": "pancreas gene expression; mice fed HFD, vs HFD saline", "result": "significant overexpression"}, {"measurement": "DYRK1A pancreatic transcription", "setting": "pancreas gene expression; mice fed control or HFD, chronic treatment", "result": "significant downregulation"}]}
